In patent US8691804B2 (Evotec AG, priority 2008, dated 2014) one finds IC50 data, which are given here for 37 molecules.

Each structure is given as a SMILES string.

In the experiment the target is T1, human H3 receptors (Homo sapiens, UniProt Q9Y5N1).
T1 construct: host or cells: CHO-K1
T1 sequence (Q9Y5N1 whole entry): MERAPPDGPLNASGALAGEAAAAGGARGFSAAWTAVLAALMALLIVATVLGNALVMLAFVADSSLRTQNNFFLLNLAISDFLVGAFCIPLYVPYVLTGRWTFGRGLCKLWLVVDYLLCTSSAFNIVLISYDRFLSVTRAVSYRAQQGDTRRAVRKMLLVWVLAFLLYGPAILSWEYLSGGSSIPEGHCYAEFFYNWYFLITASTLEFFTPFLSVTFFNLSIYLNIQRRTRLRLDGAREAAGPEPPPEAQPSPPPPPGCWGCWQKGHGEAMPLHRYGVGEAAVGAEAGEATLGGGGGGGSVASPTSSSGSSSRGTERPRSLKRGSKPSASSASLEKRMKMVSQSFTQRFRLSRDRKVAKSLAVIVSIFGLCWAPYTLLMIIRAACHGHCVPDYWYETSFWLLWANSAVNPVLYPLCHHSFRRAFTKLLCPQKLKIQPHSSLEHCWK
Nature of the experiment: cAMP quantification assay for human H3 receptor testing. The experiment is classed as cell-based. The note with it: CHO-K1 cells expressing human H3 receptors; inhibition of agonist-induced decrease of cAMP; 100 nM histamine, 10 μM forskolin; read-out: Potency range (IC50 values). Put shortly: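 CHO-K1 cells expressing human H3 (10,000/well) were preincubated 30 min at 37 °C with compound in PBS containing 1 mM IBMX and 0.03% BSA. They were then challenged 30 min with agonist solution (100 nM histamine plus 10 μM forskolin). cAMP was quantified by enzyme-complementation luminescence, with 8 concentrations in triplicate at 1% DMSO.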
In general, IC50 refers to the midpoint of a concentration-inhibition curve. With `CNC(=O)c1ccc(NC2CN(C(=O)N3CCCN(C4CCC4)CC3)C2)cn1` [Example 110, 5-({1-[(4-cyclobutyl-1,4-diazepan-1-yl)carbonyl]azetidin-3-yl}amino)-N-methylpyridine-2-carboxamide], the IC50 is under 100 nM. For the molecule `CNC(=O)c1ccc(N(C)C2CN(C(=O)N3CCCN(C4CCC4)CC3)C2)cn1` [Example 111, 5-[{1-[(4-cyclobutyl-1,4-diazepan-1-yl)carbonyl]azetidin-3-yl}(methyl)amino]-N-methylpyridine-2-carboxamide], the IC50 is under 100 nM. On to `N#Cc1ccc(CNC2CN(C(=O)N3CCCN(C4CCC4)CC3)C2)cc1` [Example 112, 4-[({1-[(4-cyclobutyl-1,4-diazepan-1-yl)carbonyl]azetidin-3-yl}amino)methyl]benzonitrile], for which the IC50 was under 100 nM. For `CNC(=O)c1ccc(OC2CN(C(=O)N3CCCN(C)CC3)C2)cn1` [Example 113, 5-({1-[(4-methyl-1,4-diazepan-1-yl)carbonyl]azetidin-3-yl}oxy)-N-methylpyridine-2-carboxamide] the value was 500 to 5000 nM; for `CNC(=O)c1ccc(OC2CN(C(=O)N3CCCN(C(C)C)CC3)C2)cn1` [Example 114, 5-({1-[(4-(1-methylethyl)-1,4-diazepan-1-yl)carbonyl]azetidin-3-yl}oxy)-N-methylpyridine-2-carboxamide], under 100 nM; for `CNC(=O)c1ccc(OC2CN(C(=O)N3CCCN(C4CCCC4)CC3)C2)cn1` [Example 115, 5-({1-[(4-cyclopentyl-1,4-diazepan-1-yl)carbonyl]azetidin-3-yl}oxy)-N-methylpyridine-2-carboxamide], under 100 nM. With `O=C1NCCc2cc(OC3CN(C(=O)N4CCCN(C5CCC5)CC4)C3)ccc21` [Example 116, 6-({1-[(4-cyclobutyl-1,4-diazepan-1-yl)carbonyl]azetidin-3-yl}oxy)-3,4-dihydroisoquinolin-1(2H)-one], the IC50 is under 100 nM. On to `CN1CCc2cc(OC3CN(C(=O)N4CCCN(C5CCC5)CC4)C3)ccc2C1=O` [Example 117, 6-({1-[(4-cyclobutyl-1,4-diazepan-1-yl)carbonyl]azetidin-3-yl}oxy)-2-methyl-3,4-dihydroisoquinolin-1(2H)-one], for which the 50% inhibitory concentration (IC50) is under 100 nM.

For the molecule `CC(C)(O)c1ccc(OC2CN(C(=O)N3CCCN(C4CCC4)CC3)C2)cn1` [Example 118, 2-[5-({1-[(4-cyclobutyl-1,4-diazepan-1-yl)carbonyl]azetidin-3-yl}oxy)pyridin-2-yl]propan-2-ol], the IC50 was under 100 nM.

Regarding `CC(=O)c1ccc(OC2CN(C(=O)N3CCCN(C4CCC4)CC3)C2)cn1` [Example 119, 1-[5-({1-[(4-cyclobutyl-1,4-diazepan-1-yl)carbonyl]azetidin-3-yl}oxy)pyridin-2-yl]ethanone], the IC50 is under 100 nM. For `COc1cnc(OC2CN(C(=O)N3CCCN(C4CCC4)CC3)C2)nc1` [Example 120, 1-cyclobutyl-4-({3-[(5-methoxypyrimidin-2-yl)oxy]azetidin-1-yl}carbonyl)-1,4-diazepane] the value was under 100 nM; for `Cc1ccc(OC2CN(C(=O)N3CCCN(C4CCC4)CC3)C2)cn1` [Example 121, 1-cyclobutyl-4-({3-[(6-methylpyridin-3-yl)oxy]azetidin-1-yl}carbonyl)-1,4-diazepane], under 100 nM. On to `COC(=O)C1CN(C(=O)N2CCCN(C3CCC3)CC2)C1` [Example 122, methyl 1-[(4-cyclobutyl-1,4-diazepan-1-yl)carbonyl]azetidine-3-carboxylate], for which the IC50 is under 100 nM. To `O=C(Nc1ccc(Cl)cc1)C1CN(C(=O)N2CCCN(C3CCC3)CC2)C1` [Example 123, N-(4-chlorophenyl)-1-[(4-cyclobutyl-1,4-diazepan-1-yl)carbonyl]azetidine-3-carboxamide] belongs under 100 nM.

Consider `O=C(C1CN(C(=O)N2CCCN(C3CCC3)CC2)C1)N1CCCCC1` [Example 124, 1-cyclobutyl-4-{[3-(piperidin-1-ylcarbonyl)azetidin-1-yl]carbonyl}-1,4-diazepane], for which the IC50 was under 100 nM. To `O=C(C1CN(C(=O)N2CCCN(C3CCC3)CC2)C1)N1CCOCC1` [Example 125, 1-cyclobutyl-4-{[3-(morpholin-4-ylcarbonyl)azetidin-1-yl]carbonyl}-1,4-diazepane] belongs under 100 nM; to `O=C(C1CN(C(=O)N2CCCN(C3CCC3)CC2)C1)N1CCC1` [Example 126, 1-{[3-(azetidin-1-ylcarbonyl)azetidin-1-yl]carbonyl}-4-cyclobutyl-1,4-diazepane], under 100 nM; to `O=C(C1CN(C(=O)N2CCCN(C3CCC3)CC2)C1)N1CCCC1` [Example 127, 1-cyclobutyl-4-{[3-(pyrrolidin-1-ylcarbonyl)azetidin-1-yl]carbonyl}-1,4-diazepane], under 100 nM. With `O=C(C1CN(C(=O)N2CCCN(C3CCC3)CC2)C1)N1CCCCCC1` [Example 128, 1-{[3-(azepan-1-ylcarbonyl)azetidin-1-yl]carbonyl}-4-cyclobutyl-1,4-diazepane], the IC50 was under 100 nM. Turning to `O=C(C1CN(C(=O)N2CCCN(C3CCC3)CC2)C1)N1CCC(F)CC1` [Example 129, 1-cyclobutyl-4-({3-[(4-fluoropiperidin-1-yl)carbonyl]azetidin-1-yl}carbonyl)-1,4-diazepane], the 50% inhibitory concentration (IC50) is under 100 nM.

`O=C(C1CN(C(=O)N2CCCN(C3CCC3)CC2)C1)N1CCC(F)(F)CC1` [Example 130, 1-cyclobutyl-4-({3-[(4,4-difluoropiperidin-1-yl)carbonyl]azetidin-1-yl}carbonyl)-1,4-diazepane]: the IC50 is under 100 nM. As for `O=C(NC1CCCCC1)C1CN(C(=O)N2CCCN(C3CCC3)CC2)C1` [Example 131, 1-[(4-cyclobutyl-1,4-diazepan-1-yl)carbonyl]-N-cyclohexylazetidine-3-carboxamide], the IC50 is under 100 nM. For the molecule `Cc1ccc(NC(=O)C2CN(C(=O)N3CCCN(C4CCC4)CC3)C2)cn1` [Example 132, 1-[(4-cyclobutyl-1,4-diazepan-1-yl)carbonyl]-N-(6-methylpyridin-3-yl)azetidine-3-carboxamide], the IC50 was under 100 nM. For `CNC(=O)C1CN(C(=O)N2CCCN(C3CCC3)CC2)C1` [Example 133, 1-[(4-cyclobutyl-1,4-diazepan-1-yl)carbonyl]-N-methylazetidine-3-carboxamide] the value was 100 to 500 nM; for `O=C(N1CCCN(C2CCC2)CC1)N1CC(CO)C1` [Example 134, {1-[(4-cyclobutyl-1,4-diazepan-1-yl)carbonyl]azetidin-3-yl}methanol], under 100 nM. Turning to `O=C(N1CCCN(C2CCC2)CC1)N1CC(COc2ccc(Cl)cc2)C1` [Example 135, 1-({3-[(4-chlorophenoxy)methyl]azetidin-1-yl}carbonyl)-4-cyclobutyl-1,4-diazepane], the IC50 is under 100 nM.

Consider `O=C1NCCc2cc(OCC3CN(C(=O)N4CCCN(C5CCC5)CC4)C3)ccc21` [Example 136, 6-({1-[(4-cyclobutyl-1,4-diazepan-1-yl)carbonyl]azetidin-3-yl}methoxy)-3,4-dihydroisoquinolin-1(2H)-one], for which the IC50 is under 100 nM. As to `CN1CCc2cc(OCC3CN(C(=O)N4CCCN(C5CCC5)CC4)C3)ccc2C1=O` [Example 137, 6-({1-[(4-cyclobutyl-1,4-diazepan-1-yl)carbonyl]azetidin-3-yl}methoxy)-2-methyl-3,4-dihydroisoquinolin-1(2H)-one], the IC50 is under 100 nM.

With `CNC(=O)c1ccc(OCC2CN(C(=O)N3CCCN(C4CCC4)CC3)C2)cn1` [Example 138, 5-({1-[(4-cyclobutyl-1,4-diazepan-1-yl)carbonyl]azetidin-3-yl}methoxy)-N-methylpyridine-2-carboxamide], the IC50 was under 100 nM.

Turning to `Cc1ccc(C(=O)NC2CN(C(=O)N3CCCN(C4CCC4)CC3)C2)cn1` [Example 139, N-{1-[(4-cyclobutyl-1,4-diazepan-1-yl)carbonyl]azetidin-3-yl}-6-methylpyridine-3-carboxamide], the IC50 is under 100 nM. For `O=C(NC1CN(C(=O)N2CCCN(C3CCC3)CC2)C1)c1ccc(Cl)cc1` [Example 140, 4-chloro-N-{1-[(4-cyclobutyl-1,4-diazepan-1-yl)carbonyl]azetidin-3-yl}benzamide], the IC50 was under 100 nM. With `O=C(NC1CN(C(=O)N2CCCN(C3CCC3)CC2)C1)C1CCCCC1` [Example 141, N-{1-[(4-cyclobutyl-1,4-diazepan-1-yl)carbonyl]azetidin-3-yl}cyclohexanecarboxamide], the IC50 is under 100 nM. Regarding `CN(C(=O)c1ccc(Cl)cc1)C1CN(C(=O)N2CCCN(C3CCC3)CC2)C1` [Example 142, 4-chloro-N-{1-[(4-cyclobutyl-1,4-diazepan-1-yl)carbonyl]azetidin-3-yl}-N-methylbenzamide], the IC50 is under 100 nM.

As for `Cc1ccc(C(=O)N(C)C2CN(C(=O)N3CCCN(C4CCC4)CC3)C2)cn1` [Example 143, N-{1-[(4-cyclobutyl-1,4-diazepan-1-yl)carbonyl]azetidin-3-yl}-N,6-dimethylpyridine-3-carboxamide], the IC50 is under 100 nM.

`CN(C(=O)C1CCCCC1)C1CN(C(=O)N2CCCN(C3CCC3)CC2)C1` [Example 144, N-{1-[(4-cyclobutyl-1,4-diazepan-1-yl)carbonyl]azetidin-3-yl}-N-methylcyclohexanecarboxamide]: the IC50 is under 100 nM.

On to `Cc1ccc(N(C)C(=O)C2CN(C(=O)N3CCCN(C4CCC4)CC3)C2)cn1` [Example 145, 1-[(4-cyclobutyl-1,4-diazepan-1-yl)carbonyl]-N-methyl-N-(6-methylpyridin-3-yl)azetidine-3-carboxamide], for which the IC50 is under 100 nM. With `CN(C(=O)C1CN(C(=O)N2CCCN(C3CCC3)CC2)C1)c1ccc(Cl)cc1` [Example 146, N-(4-chlorophenyl)-1-[(4-cyclobutyl-1,4-diazepan-1-yl)carbonyl]-N-methylazetidine-3-carboxamide], the IC50 is under 100 nM.
